Patent publication US5416073A, “Growth hormone-releasing peptides and method of treating animals, therewith” (The Adminstrators of the Tulane Educational Fund, priority 1985, dated 1995)
Square brackets hold non-standard residues; d marks the D form. Peptide text beside a SMILES is read from it.

System: Growth Hormone Release
Experiment: Peptide effects on growth hormone release, plasma GH by RIA in anesthetized male rats
Format: in vivo, rat
Protocol: In this evaluation, the procedures described by W. A. Murphy et al., Endocrinology 109:491-495 (1980), were employed.
In growth hormone (GH) experiments, male rats (Charles Rivers) were anesthetized with NEMBUTAL® (6 mg per 100 g body weight) which also served to maintain stimulated plasma GH levels. Exactly 30 minutes after the rats were anesthetized, 0.5 mL of saline or the test peptide in saline was administered as a SC bolus. A 1 mL blood sample was drawn from the jugular vein 15 minutes after the injection of the peptide in saline. GH levels were determined using NIADDKD rat GH RIA components.

## CCCC[C@H](NC(=O)[C@@H](NC(=O)[C@H](CC(=O)O)NC(=O)[C@H](CCC(N)=O)NC(=O)[C@H](CC(C)C)NC(=O)[C@H](CC(C)C)NC(=O)[C@H](CCCCN)NC(=O)[C@H](CCCNC(=N)N)NC(=O)[C@H](C)NC(=O)[C@H](CO)NC(=O)[C@H](CC(C)C)NC(=O)[C@H](CCC(N)=O)NC(=O)CNC(=O)[C@H](CC(C)C)NC(=O)[C@@H](NC(=O)[C@H](CCCCN)NC(=O)[C@H](CCCNC(=N)N)NC(=O)[C@H](Cc1ccc(O)cc1)NC(=O)[C@H](CO)NC(=O)[C@@H](CC(N)=O)NC(=O)[C@@H](NC(=O)[C@H](Cc1ccccc1)NC(=O)[C@@H](NC(=O)[C@H](C)NC(=O)[C@H](CC(=O)O)NC(=O)[C@@H](C)NC(=O)[C@@H](N)Cc1ccc(O)cc1)[C@@H](C)CC)[C@@H](C)O)C(C)C)[C@@H](C)CC)C(=O)N[C@@H](CO)C(=O)N[C@@H](CCCNC(=N)N)C(N)=O [D-Ala^2 -D-Asn^8 -Nle^27, D-alanine^2, D-asparagine^8, Norleucine^27-human Pancreatic Growth Hormone-Releasing(1-29)-amide]
Dose 0.05 ug/100 g BW SC, 15 min, saline 203 ± 39
  Plasma GH: 407 ± 53 ng/mL
Dose 0.5 ug/100 g BW SC, 15 min, saline 203 ± 39
  Plasma GH: 1613 ± 138 ng/mL

## CCCC[C@H](NC(=O)[C@@H](NC(=O)[C@H](CC(=O)O)NC(=O)[C@H](CCC(N)=O)NC(=O)[C@H](CC(C)C)NC(=O)[C@H](CC(C)C)NC(=O)[C@H](CCCCN)NC(=O)[C@H](CCCNC(=N)N)NC(=O)[C@H](C)NC(=O)[C@H](CO)NC(=O)[C@H](CC(C)C)NC(=O)[C@H](CCC(N)=O)NC(=O)CNC(=O)[C@H](CC(C)C)NC(=O)[C@@H](NC(=O)[C@H](CCCCN)NC(=O)[C@H](CCCNC(=N)N)NC(=O)[C@H](Cc1ccc(O)cc1)NC(=O)[C@H](CO)NC(=O)[C@@H](CC(N)=O)NC(=O)[C@@H](NC(=O)[C@H](Cc1ccccc1)NC(=O)[C@@H](NC(=O)[C@H](C)NC(=O)[C@@H](CC(=O)O)NC(=O)[C@@H](C)NC(=O)[C@@H](N)Cc1ccc(O)cc1)[C@@H](C)CC)[C@@H](C)O)C(C)C)[C@@H](C)CC)C(=O)N[C@@H](CO)C(=O)N[C@@H](CCCNC(=N)N)C(N)=O [D-Ala^2 -D-Asp^3 -D-Asn^8 -Nle^27, D-alanine^2, D-aspartic acid^3, D-asparagine^8, Norleucine27-human Pancreatic Growth Hormone-Releasing(1-29)-amide]
Dose 0.1 ug/100 g BW SC, 15 min, saline 383 ± 79
  Plasma GH: 767 ± 146 ng/mL
Dose 1.0 ug/100 g BW SC, 15 min, saline 383 ± 79
  Plasma GH: 2419 ± 252 ng/mL

## CCCC[C@H](NC(=O)[C@@H](NC(=O)[C@H](CC(=O)O)NC(=O)[C@H](CCC(N)=O)NC(=O)[C@H](CC(C)C)NC(=O)[C@H](CC(C)C)NC(=O)[C@H](CCCCN)NC(=O)[C@H](CCCNC(=N)N)NC(=O)[C@H](C)NC(=O)[C@H](CO)NC(=O)[C@H](CC(C)C)NC(=O)[C@H](CCC(N)=O)NC(=O)CNC(=O)[C@H](CC(C)C)NC(=O)[C@@H](NC(=O)[C@H](CCCCN)NC(=O)[C@H](CCCNC(=N)N)NC(=O)[C@H](Cc1ccc(O)cc1)NC(=O)[C@H](CO)NC(=O)[C@H](CC(N)=O)NC(=O)[C@@H](NC(=O)[C@H](Cc1ccccc1)NC(=O)[C@@H](NC(=O)[C@H](C)NC(=O)[C@H](CC(=O)O)NC(=O)[C@@H](C)NC(=O)[C@@H](N)Cc1ccc(O)cc1)[C@@H](C)CC)[C@@H](C)O)C(C)C)[C@@H](C)CC)C(=O)N[C@@H](CO)C(=O)N[C@@H](CCCNC(=N)N)C(N)=O [D-Ala^2 -Nle^27, D-alanine^2, Norleucine^27-human Pancreatic Growth Hormone-Releasing(1-29)-amide]
Dose 0.1 ug/100 g BW SC, 15 min, saline 278 ± 37
  Plasma GH: 465 ± 75 ng/mL
Dose 1.0 ug/100 g BW SC, 15 min, saline 278 ± 37
  Plasma GH: 2287 ± 265 ng/mL

## CC[C@H](C)[C@H](NC(=O)[C@H](C)NC(=O)[C@H](CC(=O)O)NC(=O)[C@H](C)NC(=O)[C@H](Cc1ccc(O)cc1)NC(C)=O)C(=O)N[C@@H](Cc1ccccc1)C(=O)N[C@H](C(=O)N[C@@H](CC(N)=O)C(=O)N[C@@H](CO)C(=O)N[C@@H](Cc1ccc(O)cc1)C(=O)N[C@@H](CCCNC(=N)N)C(=O)N[C@@H](CCCCN)C(=O)N[C@H](C(=O)N[C@@H](CC(C)C)C(=O)NCC(=O)N[C@@H](CCC(N)=O)C(=O)N[C@@H](CC(C)C)C(=O)N[C@@H](CO)C(=O)N[C@@H](C)C(=O)N[C@@H](CCCNC(=N)N)C(=O)N[C@@H](CCCCN)C(=O)N[C@@H](CC(C)C)C(=O)N[C@@H](CC(C)C)C(=O)N[C@@H](CCC(N)=O)C(=O)N[C@@H](CC(=O)O)C(=O)N[C@H](C(=O)N[C@@H](CCSC)C(=O)N[C@@H](CO)C(=O)N[C@@H](CCCNC(=N)N)C(N)=O)[C@@H](C)CC)C(C)C)[C@@H](C)O [N-Ac-hpGRF(1-29)-NH2, N-acetyl Human Pancreatic Growth Hormone-Releasing Factor(1-29)-Amide]
Dose 1.20 μg/100 g BW SC, 15 min, saline 342 ± 53
  Plasma GH: 2518 ± 598 ng/mL
Dose 3.0 μg/100 g BW SC, 15 min, saline 342 ± 53
  Plasma GH: 4899 ± 557 ng/mL

## CC[C@H](C)[C@H](NC(=O)[C@H](C)NC(=O)[C@@H](CC(=O)O)NC(=O)[C@@H](C)NC(=O)[C@@H](Cc1ccc(O)cc1)NC(C)=O)C(=O)N[C@@H](Cc1ccccc1)C(=O)N[C@H](C(=O)N[C@@H](CC(N)=O)C(=O)N[C@@H](CO)C(=O)N[C@@H](Cc1ccc(O)cc1)C(=O)N[C@@H](CCCNC(=N)N)C(=O)N[C@@H](CCCCN)C(=O)N[C@H](C(=O)N[C@@H](CC(C)C)C(=O)NCC(=O)N[C@@H](CCC(N)=O)C(=O)N[C@@H](CC(C)C)C(=O)N[C@@H](CO)C(=O)N[C@@H](C)C(=O)N[C@@H](CCCNC(=N)N)C(=O)N[C@@H](CCCCN)C(=O)N[C@@H](CC(C)C)C(=O)N[C@@H](CC(C)C)C(=O)N[C@@H](CCC(N)=O)C(=O)N[C@@H](CC(=O)O)C(=O)N[C@H](C(=O)N[C@@H](CCSC)C(=O)N[C@@H](CO)C(=O)N[C@@H](CCCNC(=N)N)C(N)=O)[C@@H](C)CC)C(C)C)[C@@H](C)O [N-acetyl-D-tyrosine^1,D-alanine^2,D-aspartic acid^3-human Pancreatic Growth Hormone-Releasing(1-29)-amine]
Dose 1.0 μg/100 g BW SC, 15 min, saline 541 ± 78
  Plasma GH: 1181 ± 164 ng/mL
Dose 5.0 μg/100 g BW SC, 15 min, saline 541 ± 78
  Plasma GH: 3594 ± 754 ng/mL

## CC[C@H](C)[C@H](NC(=O)[C@H](C)NC(=O)[C@H](CC(=O)O)NC(=O)[C@@H](C)NC(=O)[C@@H](N)Cc1ccc(O)cc1)C(=O)N[C@@H](Cc1ccccc1)C(=O)N[C@H](C(=O)N[C@@H](CC(N)=O)C(=O)N[C@@H](CO)C(=O)N[C@@H](Cc1ccc(O)cc1)C(=O)N[C@@H](CCCNC(=N)N)C(=O)N[C@@H](CCCNC(=N)N)C(=O)N[C@H](C(=O)N[C@@H](CC(C)C)C(=O)NCC(=O)N[C@@H](CCC(N)=O)C(=O)N[C@@H](CC(C)C)C(=O)N[C@@H](CO)C(=O)N[C@@H](C)C(=O)N[C@@H](CCCNC(=N)N)C(=O)N[C@@H](CCCNC(=N)N)C(=O)N[C@@H](CC(C)C)C(=O)N[C@@H](CC(C)C)C(=O)N[C@@H](CCC(N)=O)C(=O)N[C@@H](CC(=O)O)C(=O)N[C@H](C(=O)N[C@@H](CCSC)C(=O)N[C@@H](CO)C(=O)N[C@@H](CCCNC(=N)N)C(N)=O)[C@@H](C)CC)C(C)C)[C@@H](C)O [[D-Ala^2, Arg^12, 21]-hpGRF(1-29)-NH2, D-alanine^2, Arginine^12,21-human Growth Hormone-Releasing (1-29)-amide] (H-Y[dA]DAIFTNSYRRVLGQLSARRLLQDIMSR-NH2)
Dose 0.4 μ/100 g BW SC, 15 min, saline 309 ± 20
  Plasma GH: 755 ± 131 ng/mL
Dose 1.0 μ/100 g BW SC, 15 min, saline 309 ± 20
  Plasma GH: 1752 ± 289 ng/mL

## CC[C@H](C)[C@H](NC(=O)[C@H](C)NC(=O)[C@H](CC(=O)O)NC(=O)[C@@H](C)NC(=O)[C@@H](Cc1ccc(O)cc1)NC(C)=O)C(=O)N[C@@H](Cc1ccccc1)C(=O)N[C@H](C(=O)N[C@@H](CC(N)=O)C(=O)N[C@@H](CO)C(=O)N[C@@H](Cc1ccc(O)cc1)C(=O)N[C@@H](CCCNC(=N)N)C(=O)N[C@@H](CCCCN)C(=O)N[C@H](C(=O)N[C@@H](CC(C)C)C(=O)NCC(=O)N[C@@H](CCC(N)=O)C(=O)N[C@@H](CC(C)C)C(=O)N[C@@H](CO)C(=O)N[C@@H](C)C(=O)N[C@@H](CCCNC(=N)N)C(=O)N[C@@H](CCCCN)C(=O)N[C@@H](CC(C)C)C(=O)N[C@@H](CC(C)C)C(=O)N[C@@H](CCC(N)=O)C(=O)N[C@@H](CC(=O)O)C(=O)N[C@H](C(=O)N[C@@H](CCSC)C(=O)N[C@@H](CO)C(=O)N[C@@H](CCCNC(=N)N)C(N)=O)[C@@H](C)CC)C(C)C)[C@@H](C)O [[N-Ac-D-Tyr^1, D-Ala^2]-hpGRF(1-29)-NH2, N-acetyl-D-tyrosine^1,D-alanine^2-human pancreatic growth hormone-releasing (1-29)-amine]
Dose 0.2 μ/100 g BW SC, 15 min, saline 333 ± 50
  Plasma GH: 680 ± 100 ng/mL
Dose 0.5 μ/100 g BW SC, blood 15 min after injection, saline 333 ± 50
  Plasma GH: 499 ± 50 ng/mL
Dose 0.8 μ/100 g BW SC, 15 min, saline 333 ± 50
  Plasma GH: 2063 ± 251 ng/mL
Dose 3.2 μ/100 g BW SC, 15 min, saline 333 ± 50
  Plasma GH: 3818 ± 412 ng/mL

## Ac-YADAIFTNSYRRVLGQLSARRLLQDIMSR-NH2 [[N-Ac-Tyr, Arg^12, 21]-hpGRF(1-29)-NH2, N-acetyl Arginine^12,21-human Pancreatic Growth Hormone-Releasing Factor (1-29)-amide]
Dose 1 μ/100 g BW SC, 15 min, saline 27% ± 54
  Plasma GH: 796 ± 88 ng/mL
Dose 2.5 μ/100 g BW SC, 15 min, saline 27% ± 54
  Plasma GH: 1649 ± 167 ng/mL

## D-asparagine^8 -human Pancreatic Growth Hormone-Releasing(1-29)-amide [D-Asn^8]
Dose 4 ug/100 g BW SC, 15 min, saline 366 ± 81
  Plasma GH: 1296 ± 118 ng/mL
Dose 10 ug/100 g BW SC, 15 min, saline 366 ± 81
  Plasma GH: 2397 ± 246 ng/mL

## D-serine-9-human Pancreatic Growth Hormone-Releasing(1-29)-amine [D-Ser^9]
By comparison to pooled standards GRF(1-29)-NH2, limits in parenthesis
  % Potency: 108 (77-151) %
Dose 16 (unit not given), SC, 15 min
  Plasma GH: 1804 ± 312
Dose 40 (unit not given), SC, 15 min
  Plasma GH: 3652 ± 370
